# In patent US12552846B2, “Modified BCL9 mimetic peptides” (Sapience Therapeutics, Inc., priority 2019, dated 2026):
# Square brackets hold non-standard residues; d marks the D form. Peptide text beside a SMILES is read from it. * marks the point of attachment. dOrn = NCCC[C@@H](N)C(=O)O; Octanoyl = CCCCCCCC(=O)*
# Tests used:
# MCF7 breast cancer cells = assay: MCF7 subcutaneous tumor model, tumor volume; format: in vivo, NU/J mice
# Method: In this experiment, we examined the effect of peptide BCL-26 on tumor volume in an MCF7 subcutaneous tumor model. Briefly, 2×10^6 MCF7 breast cancer cells, suspended 1:1 in Matrigel, were implanted via subcutaneous injection into the axilla of NU/J mice. Peptide BCL-26 was administered at a dose of 12.5 mg/kg via subcutaneous injection three times weekly for three weeks. Dosing was initiated on day 2 post tumor inoculation, with an average starting tumor volume of about 25 mm^3.
# We also examined the effect of BCL9 mimetic peptides in established tumors. MCF7 cells were implanted into mice as described above. Peptide BCL-87 was administered at a dose of 5 mg/kg via subcutaneous injection three times weekly for three weeks. Dosing was initiated on day 21 post tumor inoculation, with an average starting tumor volume of about 470 mm^3.
# We additionally examined the effect of different concentrations of mimetic peptides in established tumors. MCF7 cells were implanted into mice as described above. Peptides BCL-27 and BCL-87 were administered at a dose of 1 mg/kg or 5 mg/kg via subcutaneous injection three times weekly for three weeks. Dosing was initiated on day 14 post tumor inoculation, with an average starting tumor volume of about 340 mm^3.
# [1] = system: HL60 promyelocytic leukemia cells; assay: Cytotoxicity assay in HL60 cells (Annexin V FITC / PI flow cytometry); format: cell-based; conditions: 48 hours; for EC50: 0-80 μM, % Viability (Annexin V low, PI low)
# Summary of the method: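 HL60 cells at 3.5×10^3/well in RPMI + 1.5% FBS exposed to peptides at 0-80 μM final for 48 h at 37 °C. Viability by flow cytometry after Annexin V-FITC/PI staining, gated on FSC vs SSC. % Viability is the fraction that is Annexin V^low and PI^low.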
SMILES,"tumor volume relative to vehicle (MCF7 breast cancer cells; 12.5 mg/kg s.c. three times weekly for three weeks, dosing from day 2, starting tumor about 25 mm^3, p<0.0001)",EC50 [1],"tumor volume relative to vehicle and to peptide control BCL-134 (MCF7 breast cancer cells; 1 mg/kg or 5 mg/kg s.c. three times weekly for three weeks, dosing from day 14, starting tumor about 340 mm^3, p≤0.0004)",cytotoxic activity [1]
"CSCC[C@@H](NC(=O)[C@@H](CC(C)C)NC(=O)[C@H](N)Cc1ccccc1)C(=O)N[C@H](CCCNC(=N)N)C(=O)N[C@H](CCC(N)=O)C(=O)N[C@H](CC(C)C)C(=O)N[C@H](CC(=O)O)C(=O)N[C@H](CCCNC(=N)N)C(=O)N[C@H](CC(C)C)C(=O)N[C@@H](C(=O)N[C@H](CCC(N)=O)C(=O)N[C@H](CC(C)C)C(=O)N[C@H](C)C(=O)N[C@H](CCCCN)C(=O)N[C@H](CC(C)C)C(=O)N[C@@H](C(=O)N1CCC[C@@H]1C(=O)N[C@@H](C(=O)O)C(C)C)[C@H](C)O)[C@H](C)O [BCL-26, FLMRQLDRLTQLAKLTPV] (H-[dF][dL][dM][dR][dQ][dL][dD][dR][dL][dT][dQ][dL][dA][dK][dL][dT][dP][dV]-OH; N-terminus and C-terminus assumed)",significantly reduced tumor volume,> 10000 nM,,
"CC(C)C[C@@H](NC(=O)[C@@H](Cc1c[nH]c2ccccc12)NC(=O)[C@H](N)Cc1c[nH]c2ccccc12)C(=O)N[C@H](C)C(=O)N[C@H](CCCNC(=N)N)C(=O)N[C@H](CCC(N)=O)C(=O)N[C@H](CC(C)C)C(=O)N[C@H](C)C(=O)N[C@H](CCCNC(=N)N)C(=O)N[C@H](CC(C)C)C(=O)N[C@H](C)C(=O)N[C@H](CCC(N)=O)C(=O)N[C@H](CC(C)C)C(=O)N[C@H](C)C(=O)N[C@H](CCCCN)C(=O)N[C@H](CC(C)C)C(=O)N[C@@H](C(=O)N1CCC[C@@H]1C(=O)N[C@@H](C(=O)O)C(C)C)[C@H](C)O [BCL-27, WWLARQLARLAQLAKLTPV] (H-[dW][dW][dL][dA][dR][dQ][dL][dA][dR][dL][dA][dQ][dL][dA][dK][dL][dT][dP][dV]-OH; N-terminus and C-terminus assumed)",,2000 to 10000 nM,significantly reduced tumor volume,
CC(C)C[C@@H](NC(=O)[C@@H](C)NC(=O)[C@@H](C)NC(=O)[C@@H](CC(C)C)NC(=O)[C@@H](CCCNC(=N)N)NC(=O)[C@@H](C)NC(=O)[C@@H](CC(C)C)NC(=O)[C@@H](CCC(N)=O)NC(=O)[C@@H](CCCNC(=N)N)NC(=O)[C@@H](C)NC(=O)[C@@H](CC(C)C)NC(=O)[C@@H](Cc1c[nH]c2ccccc12)NC(=O)[C@H](Cc1c[nH]c2ccccc12)NC(=O)[C@H](N)Cc1ccccc1)C(=O)N[C@H](C)C(=O)N[C@H](CCCCN)C(=O)N[C@H](CC(C)C)C(=O)N[C@@H](C(=O)N1CCC[C@@H]1C(=O)N[C@@H](C(=O)O)C(C)C)[C@H](C)O [BCL-132] (H-[dF]W[dW][dL][dA][dR][dQ][dL][dA][dR][dL][dA][dA][dL][dA][dK][dL][dT][dP][dV]-OH; N-terminus and C-terminus assumed),,< 2000 nM,,
CC(C)C[C@@H](NC(=O)[C@@H](C)NC(=O)[C@@H](C)NC(=O)[C@@H](CC(C)C)NC(=O)[C@@H](CCC(N)=O)NC(=O)[C@@H](CCCNC(=N)N)NC(=O)[C@@H](C)NC(=O)[C@@H](CC(C)C)NC(=O)[C@@H](Cc1c[nH]c2ccccc12)NC(=O)[C@H](Cc1c[nH]c2ccccc12)NC(=O)[C@H](N)Cc1ccccc1)C(=O)N[C@H](C)C(=O)N[C@H](CCC(N)=O)C(=O)N[C@H](CC(C)C)C(=O)N[C@H](C)C(=O)N[C@H](CCCCN)C(=O)N[C@H](CC(C)C)C(=O)N[C@@H](C(=O)N1CCC[C@@H]1C(=O)N[C@@H](C(=O)O)C(C)C)[C@H](C)O [BCL-133] (H-[dF]W[dW][dL][dA][dR][dQ][dL][dA][dA][dL][dA][dQ][dL][dA][dK][dL][dT][dP][dV]-OH; N-terminus and C-terminus assumed),,< 2000 nM,,
"CC(C)C[C@@H](NC(=O)[C@@H](C)NC(=O)[C@@H](C)NC(=O)[C@@H](CC(C)C)NC(=O)[C@@H](CCC(N)=O)NC(=O)[C@@H](C)NC(=O)[C@@H](C)NC(=O)[C@@H](CC(C)C)NC(=O)[C@@H](Cc1c[nH]c2ccccc12)NC(=O)[C@@H](Cc1c[nH]c2ccccc12)NC(=O)CNC(=O)[C@@H](CCCNC(=N)N)NC(=O)CNC(=O)[C@@H](CC(=O)O)NC(=O)[C@@H](CO)NC(=O)[C@H]1CCCN1)C(=O)N[C@H](C)C(=O)N[C@H](CCC(N)=O)C(=O)N[C@H](CC(C)C)C(=O)N[C@H](C)C(=O)N[C@H](CCCCN)C(=O)N[C@H](CC(C)C)C(=O)N[C@@H](C(=O)N1CCC[C@@H]1C(=O)N[C@@H](C(=O)O)C(C)C)[C@H](C)O [BCL-134, reference compound] (H-[dP][dS][dD]G[dR]G[dW][dW][dL][dA][dA][dQ][dL][dA][dA][dL][dA][dQ][dL][dA][dK][dL][dT][dP][dV]-OH; N-terminus and C-terminus assumed)",,> 80000 nM,,Lack of cytotoxic activity
CCCCCCCC(=O)N1CCC[C@@H]1C(=O)N[C@H](CO)C(=O)N[C@H](CC(=O)O)C(=O)NCC(=O)N[C@H](CCCNC(=N)N)C(=O)NCC(=O)N[C@H](Cc1c[nH]c2ccccc12)C(=O)N[C@H](Cc1c[nH]c2ccccc12)C(=O)N[C@H](CC(C)C)C(=O)N[C@H](C)C(=O)N[C@H](CCCNC(=N)N)C(=O)N[C@H](CCC(N)=O)C(=O)N[C@H](CC(C)C)C(=O)N[C@H](C)C(=O)N[C@H](CCCNC(=N)N)C(=O)N[C@H](CC(C)C)C(=O)N[C@H](C)C(=O)N[C@H](CCC(N)=O)C(=O)N[C@H](CC(C)C)C(=O)N[C@H](C)C(=O)N[C@H](CCCCN)C(=O)N[C@H](CC(C)C)C(=O)N[C@@H](C(=O)N1CCC[C@@H]1C(=O)N[C@@H](C(=O)O)C(C)C)[C@H](C)O [BCL-135] (Octanoyl-[dP][dS][dD]G[dR]G[dW][dW][dL][dA][dR][dQ][dL][dA][dR][dL][dA][dQ][dL][dA][dK][dL][dT][dP][dV]-OH; C-terminus assumed),,2000 to 10000 nM,,
CCCCCCCC(=O)N1CCC[C@@H]1C(=O)N[C@H](CO)C(=O)N[C@H](CC(=O)O)C(=O)NCC(=O)N[C@H](CCCNC(=N)N)C(=O)NCC(=O)N[C@H](Cc1c[nH]c2ccccc12)C(=O)N[C@H](Cc1c[nH]c2ccccc12)C(=O)N[C@H](CC(C)C)C(=O)N[C@@H](C(=O)N[C@H](CCCNC(=N)N)C(=O)N[C@H](CCC(N)=O)C(=O)N[C@H](CC(C)C)C(=O)N[C@H](C)C(=O)N[C@H](CCCNC(=N)N)C(=O)N[C@H](CC(C)C)C(=O)N[C@H](C)C(=O)N[C@H](CCC(N)=O)C(=O)N[C@H](CC(C)C)C(=O)N[C@H](C)C(=O)N[C@H](CCCCN)C(=O)N[C@H](CC(C)C)C(=O)N[C@@H](C(=O)N1CCC[C@@H]1C(=O)N[C@@H](C(=O)O)C(C)C)[C@H](C)O)C(C)C [BCL-136a] (Octanoyl-[dP][dS][dD]G[dR]G[dW][dW][dL][dV][dR][dQ][dL][dA][dR][dL][dA][dQ][dL][dA][dK][dL][dT][dP][dV]-OH; C-terminus assumed),,< 2000 nM,,
CC(C)C[C@@H](NC(=O)[C@@H](CCCN)NC(=O)[C@@H](C)NC(=O)[C@@H](CC(C)C)NC(=O)[C@@H](CCC(N)=O)NC(=O)[C@@H](CCCN)NC(=O)[C@@H](C)NC(=O)[C@@H](CC(C)C)NC(=O)[C@@H](Cc1c[nH]c2ccccc12)NC(=O)[C@@H](Cc1c[nH]c2ccccc12)NC(=O)CNC(=O)[C@@H](CCCNC(=N)N)NC(=O)CNC(=O)[C@@H](CC(=O)O)NC(=O)[C@@H](CO)NC(=O)[C@H]1CCCN1)C(=O)N[C@H](C)C(=O)N[C@H](CCC(N)=O)C(=O)N[C@H](CC(C)C)C(=O)N[C@H](C)C(=O)N[C@H](CCCN)C(=O)N[C@H](CC(C)C)C(=O)N[C@@H](C(=O)N1CCC[C@@H]1C(=O)N[C@@H](C(=O)O)C(C)C)[C@H](C)O [BCL-137] (H-[dP][dS][dD]G[dR]G[dW][dW][dL][dA][dOrn][dQ][dL][dA][dOrn][dL][dA][dQ][dL][dA][dOrn][dL][dT][dP][dV]-OH; N-terminus and C-terminus assumed),,< 2000 nM,,
CCCCCCCC(=O)N[C@H](CC(C)C)C(=O)N[C@@H](C(=O)N[C@H](CCCNC(=N)N)C(=O)N[C@H](CCC(N)=O)C(=O)N[C@H](CC(C)C)C(=O)N[C@H](C)C(=O)N[C@H](CCCNC(=N)N)C(=O)N[C@H](CC(C)C)C(=O)N[C@H](C)C(=O)N[C@H](CCC(N)=O)C(=O)N[C@H](CC(C)C)C(=O)N[C@H](C)C(=O)N[C@H](CCCCN)C(=O)N[C@H](CC(C)C)C(=O)N[C@@H](C(=O)N1CCC[C@@H]1C(=O)N[C@@H](C(=O)O)C(C)C)[C@H](C)O)C(C)C [BCL-138] (Octanoyl-[dL][dV][dR][dQ][dL][dA][dR][dL][dA][dQ][dL][dA][dK][dL][dT][dP][dV]-OH; C-terminus assumed),,> 80000 nM,,Lack of cytotoxic activity
CC(C)C[C@@H](NC(=O)[C@@H](CCCNC(=N)N)NC(=O)[C@@H](C)NC(=O)[C@@H](CC(C)C)NC(=O)[C@@H](CCC(N)=O)NC(=O)[C@@H](CCCNC(=N)N)NC(=O)[C@H](NC(=O)[C@@H](CC(C)C)NC(=O)[C@@H](Cc1c[nH]c2ccccc12)NC(=O)[C@H](Cc1c[nH]c2ccccc12)NC(=O)CNC(=O)[C@@H](CCCNC(=N)N)NC(=O)CNC(=O)[C@@H](CC(=O)O)NC(=O)[C@@H](CO)NC(=O)[C@H]1CCCN1)C(C)C)C(=O)N[C@H](C)C(=O)N[C@H](CCC(N)=O)C(=O)N[C@H](CC(C)C)C(=O)N[C@H](C)C(=O)N[C@H](CCCCN)C(=O)N[C@H](CC(C)C)C(=O)N[C@@H](C(=O)N1CCC[C@@H]1C(=O)N[C@@H](C(=O)O)C(C)C)[C@H](C)O [BCL-139] (H-[dP][dS][dD]G[dR]GW[dW][dL][dV][dR][dQ][dL][dA][dR][dL][dA][dQ][dL][dA][dK][dL][dT][dP][dV]-OH; N-terminus and C-terminus assumed),,< 2000 nM,,
